In patent US6437138B1, “3-pyridyloxymethyl heterocyclic ether compounds useful in controlling chemical synaptic transmission” (priority 1996, dated 2002):
Where a name gives a salt, the structure may show the parent alone.

How the values were obtained:
[1] = target: neuronal nicotinic cholinergic channels in IMR-32 cells (Homo sapiens, UniProt P30926+P32297); test: 86Rb+ efflux in IMR-32 cells (activation, or inhibition of efflux elicited by (S)-nicotine); format: cell-based; conditions: IMR-32; for inhibition at 1 µM / inhibition at 10 µM: inhibition of the efflux elicited by 100 μM (S)-nicotine; for inhibition at 1 µM: single dose 1 μM; for Emax: 86Rb+ efflux, percent relative to the response elicited by 100 μM (S)-nicotine, read-out: IMR-32 maximal response; for inhibition at 10 µM: single dose 10 μM
Source text: For the purpose of directly evaluating the ability of test compounds to functionally activate or inhibit certain subtypes of neuronal nicotinic cholinergic channels, an assay to determine ^86Rb^+Efflux in IMR-32 cells was employed (Protocol B below).
B. Protocols for the Determination of Functional Effects of Cholinerzic Channel Receptor Ligands on Synaptic Transmission
Cells of the IMR-32 human neuroblastoma clonal cell line (ATCC, Rockville, Md.) were maintained in a log phase of growth according to established procedures (Lukas, 1993). Experimental cells were seeded at a density of 500,000 cells/ml into a 24-well tissue culture dish. Plated cells were allowed to proliferate for at least 48 hours before loading with 2 μCi/ml of ^86Rb^+ (35 Ci/mmol) overnight at 37° C. The ^86Rb^+ efflux assays were performed according to previously published protocols (Lukas, R. J., J. Pharmacol. Exp. Ther., 265: 294-302, 1993) except serum-free Dulbecco's Modified Eagle's Medium was used during the ^86Rb^+ loading, rinsing, and agonist-induced efflux steps.
EC50 data and maximal responses (reported as percent relative to the response elicited by 100 μM (S)-nicotine) are shown for selected compounds of the invention. The inhibition data (given for a larger number of compounds) reflect inhibition of the efflux elicited by 100 μM (S)-nicotine for either a single dose (% inhibition at 1 μM or at 10 μM) or over a range of doses (IC50 of inhibition). […] This finding is in agreement with the results of others who have linked dopamine release, which is dependent upon the ion flux in synaptic transmission, to binding at nicotinic receptors (cf., for example, Lippiello and Caldwell, U.S. Pat. No. 5,242,935, issued Sep. 7, 1993; Caldwell and Lippiello, U.S. Pat. No. 5,248,690, issued Sep. 28, 1993; and Wonnacott et al., Prog. Brain Res., 79: 157-163 (1989)).

SMILES	inhibition at 1 µM [1] [%]	melting point [°C]	Emax [1] [%]	inhibition at 10 µM [1] [%]
Cl.Cl.Clc1ncc(OC[C@@H]2CCCN2)cc1Br [Example 23, 5-Bromo-6-chloro-3-(2-(S)-pyrrolidinylmethoxy)pyridine Dihydrochloride]	27	264 to 268	–	–
CN1CCC[C@H]1COc1cnc(Cl)c(Br)c1.Cl.Cl [Example 24, 5-Bromo-6-chloro-3-(1-methyl-2-(S)-pyrrolidinylmethoxy)pyridine Dihydrochloride]	17	189 to 191	–	–
CN1CCC[C@H]1COc1cncc(-c2cncnc2)c1.Cl.Cl [Example 25, 5-(5-Pyrimidinyl)-3-(1-methyl-2-(S)-pyrrolidinylmethoxy)pyridine Dihydrochloride]	–	205 to 220	4.5	–
CN1CCC[C@H]1COc1cnc(Cl)c(-c2ccccc2)c1.Cl.Cl [Example 26, 5-Phenyl-6-chloro-3-(1-methyl-2-(S)-pyrrolidinylmethoxy)pyridine Dihydrochloride]	47	180 to 183	–	–
CN1CCC[C@H]1COc1cncc(C=CC=CC(C)(C)C)c1.Cl.Cl [Example 30, 5-(5,5-Dimethyl-1,3-hexadienyl)-3-(1-methyl-2-(S)-pyrrolidinylmethoxy)pyridine Dihydrochloride]	21	148 to 150	–	90
Cl.Cl.Clc1ncc(OC[C@@H]2CCCN2)cc1C=Cc1ccncc1 [Example 33, 5-(2-(4-Pyridinyl)ethenyl)-6-chloro-3-(2-(S)-pyrrolidinylmethoxy)pyridine Dihydrochloride]	–	235 to 240	47	–
Cc1ccc(C#Cc2cncc(OC[C@@H]3CCCN3C)c2)cc1.Cl.Cl [Example 48, 5-(2-(4-Methylphenyl)ethynyl)-3-(1-methyl-2-(S)-pyrrolidinylmethoxy)pyridine Dihydrochloride]	40	197 to 199	–	–
Cl.Cl.c1ccc(-c2cncc(OC[C@@H]3CCCN3)c2)cc1 [Example 51, 5-Phenyl-3-(2-(S)-pyrrolidinylmethoxy)pyridine Dihydrochloride]	42	134 to 136	–	–
Cl.Cl.c1ccc(-c2cncc(OC[C@H]3CCCN3)c2)cc1 [Example 52, 5-Phenyl-3-(2-(R)-pyrrolidinylmethoxy)pyridine Dihydrochloride]	22	129 to 131	–	88
C(=C\c1cncc(OC[C@H]2CCCN2)c1)/c1ccncc1 [Example 86, 5-(2-(4-Pyridinyl)ethenyl)-3-(2-(R)-pyrroylidinylmethoxy)pyridine Trihydrochloride]	–	–	44	–
Clc1ncc(OC[C@@H]2CCN2)cc1C=Cc1ccncc1 [Example 89, 5-(2-(4-Pyridinyl)ethenyl)-6-chloro-3-(2-(S)-azetidnylmethoxy)pyridine Citric Acid Salt]	–	–	72	–
O=C(NCc1cc(OC[C@@H]2CCN2)cnc1Cl)c1ccccc1 [Example 92, 3-(2-(S)-Azetidinylmethoxy)-5-(N-benzoylamino)methyl-6-chloropyridine Hydrochloride]	–	–	25	–
c1csc(-c2cncc(OC[C@@H]3CCN3)c2)c1 [Example 154, 3-(2-(S)-Azetidinylmethoxy)-5-(2-thienyl)pyridine Dihydrochloride]	–	–	1.5	–
C=CCc1cncc(OC[C@@H]2CCN2)c1 [Example 181, 5-Allyl-3-(2-(S)-azetidinylmethoxy)pyridine Hydrochloride]	–	–	82	–
C=CCc1cc(OC[C@@H]2CCCN2)cnc1Cl [Example 183, 5-Allyl-6-chloro-3-(2-(S)-pyrrolidinylmethoxy)pyridine Hydrochloride]	–	–	110	–
CC(=O)NCc1cc(OC[C@@H]2CCN2)cnc1Cl [Example 206, 5-Acetamidomethyl-3-(2-(S)-azetidinylmethoxy)-6-chloropyridine Dihydrochloride]	–	–	11	–
